Data reported in publication PMC3873925, “Peptide-Mediated Liposomal Doxorubicin Enhances Drug Delivery Efficiency and Therapeutic Efficacy in Animal Models” (PLoS ONE, 2013).

What was measured:
[1] = Pharmacokinetic and biodistribution studies in H460 xenograft-bearing mice; format: in vivo, NOD/SCID mice; settings: 2 mg/kg i.v.
Protocol: Human cancer xenografts were established in NOD/SCID mice (NLAC). H460 cells (5×10^6) were injected subcutaneously (s.c.) into the dorsolateral flanks of 4-week-old mice. […] At selected time points, three mice in each group were anaesthetized and sacrificed with 50% CO2 containing 50% O2. Blood samples were collected through submaxillary punctures, and plasma samples were prepared. After perfusion, xenograft tumors and mouse organs were removed and homogenized. Tumor cell nuclei were isolated and nuclear doxorubicin was extracted as described previously, [32]. The total doxorubicin concentration was measured as described by Mayer et al.. Total doxorubicin was quantified using spectrofluorometry at λex 485/20 nm and λem 645/40 nm (Synergy HT Multi-Detection Microplate Reader, BioTek Instruments, Winooski, VT).
Tissue concentrations of doxorubicin were expressed as microequivalents per milliliter of plasma or per gram of tissue. A standard doxorubicin curve was prepared in control homogenates by following the above extraction procedure. Drug levels were estimated on the basis of doxorubicin fluorescent equivalents.

LL/2 cells = test: Lung metastasis animal model; format: in vivo; settings: 2 mg/kg i.v. twice a week, eight injections (16 mg/kg total)
Protocol: LL/2 cells were washed twice by centrifugation in media without serum at room temperature, and re-suspended in media at 4°C prior to injection. Cell viability was determined by trypan blue exclusion, and only cell suspensions with greater than 95% viability and without cell clumping were used. Cells (1×10^5 cells/mouse) were inoculated via the lateral tail vein of 6-week-old female C57BL/6 mice. Mice were then treated with different formulations of anti-cancer drugs. The dosage was 1 or 2 mg/kg twice a week for four weeks. Mouse body weight and survival rate were measured twice a week. The endpoint was determined by the mouse weight loss (>20% of body weight) or mouse activity assessment (hunching, stationary, ruffling and poor grooming). Mice were observed every day and given soft diet. Animal care was carried out in accordance with the guidelines of Academia Sinica, Taiwan.

LL/2-derived tumors = test: Syngenic animal model; format: in vivo, C57BL/6 mice; settings: five injections
Protocol: C57BL/6 mice (6-week-old, NLAC) were injected s.c. in the dorsolateral flank with 2×10^6 LL/2 cells in 100 µL serum-free media. […] The dosage of SP-5-2-LD was 1 or 2 mg/kg, injected twice a week for four weeks. Mouse body weight and tumor size were measured twice a week. Tumor volumes were calculated using the equation: length × (width)^2 ×0.52 and presented as standard error of the mean. This study used humane endpoint by determining the tumor size (>10% of body weight) or mouse weight loss (>20% of body weight). Mice were observed twice a week and given soft diet. Animal care was carried out in accordance with the guidelines of Academia Sinica, Taiwan.

H460 cells [2] = test: Orthotopic lung adenocarcinoma model; format: in vivo, SCID mice; settings: 1 mg/kg i.v. twice a week, eight injections, started five days after orthotopic injection
Protocol: SCID mice (4-week-old) were anesthetized with isoflourane mixed with oxygen and placed in the right lateral decubitus position. The skin overlying the left chest wall in the mid-axillary line was treated with alcohol, and the underlying chest wall and intercostal spaces were visualized. H460 cells (5×10^5; single-cell suspensions of over 90% viability as determined by trypan blue exclusion) in 50 µL serum-free media plus Matrigel Matrix (BD Biosciences) (1∶1) were injected into the left lateral thorax, at the lateral dorsal axillary line. After tumor injection, the mice were turned to the left lateral decubitus position and observed for 45 to 60 minutes until fully recovered. Mice were then treated with different formulations of anti-cancer drugs. The dosage was 1 mg/kg twice a week for four weeks. Mouse body weight and survival rate were measured twice a week. The endpoint was determined by the mouse weight loss (>20% of body weight) or mouse activity assessment (hunching, stationary, ruffling and poor grooming). Mice were observed every day and given soft diet. Animal care was carried out in accordance with the guidelines of Academia Sinica, Taiwan.

H460 cells [3] = test: Peptide-binding assay (cellular ELISA); format: cell-based, human
Protocol: (§1) H460 cells were seeded in 96-well ELISA plates at 1×10^4 per well. After 24-hour incubation, cells were fixed with 3.7% paraformaldehyde for 10 min at 4°C and then blocked with 1% BSA in PBS for 1 hour at room temperature. Serial diluted biotinylated peptides were incubated with cells for 1 hour at room temperature. After twice washing with PBS, cells were incubated with HRP-conjugated streptavidin (1∶5000 dilution) for 1 hour and then washed with PBS supplemented with 0.1% tween-20 for four times. Binding activity was assessed by cellular ELISA with optical density at 490 nm. For competition assay, cells were firstly incubated with unlabeled peptides at room temperature for 1 hour before incubated with 10 µg/ml biotinylated SP5-2 peptides.

H460 cells [4] = test: Peptide competition assay (cellular ELISA); format: cell-based, human; settings: B-SP5-2 10 µg/ml, unlabeled peptide 22 to 600 µg/ml
Protocol: as §1

COc1cccc2c1C(=O)c1c(O)c3c(c(O)c1C2=O)C[C@@](O)(C(=O)CO)C[C@@H]3O[C@H]1C[C@H](N)[C@H](O)[C@H](C)O1 [FD, doxorubicin]
AUC0-72 h Blood [1]: 5.9 µg·h/g | AUC0-72 h Heart [1]: 26.3 µg·h/g | AUC0-72 h Kidney [1]: 87.2 µg·h/g | AUC0-72 h Liver [1]: 293.6 µg·h/g | AUC0-72 h Lung [1]: 421.2 µg·h/g | AUC0-72 h Nuclei ([1]; doxorubicin bound to tumor cell nuclei): 5.5 µg·h/g | AUC0-72 h Tumor ([1]; doxorubicin in tumor tissue): 8.5 µg·h/g | median overall survival (LL/2 cells): 21 days | tumor size, fold larger than in equivalent SP5-2-LD-treated mice (LL/2-derived tumors; 1 mg/kg i.v. twice a week): 1.55 fold | tumor size, fold larger than in equivalent SP5-2-LD-treated mice (LL/2-derived tumors; 2 mg/kg i.v. twice a week): 2.38 fold | mean life spans (H460 cells [2]): 25 days

TDSILRSYDGGG [MP5-2, mutant peptide, WTY motif changed to GGG]
binding activity (H460 cells [3]; H460 and LL/2 cells, WTY motif changed to GGG): remarkable loss of binding activity

TDSILRSYDWTY [SP5-2]
inhibition of Biotin-labeled SP5-2 binding to H460 cells by unlabeled peptide (H460 cells [4]): competitively inhibited | minimum binding activity started at (H460 cells [3]; H460 cells, biotinylated peptide): 1 µg/mL
